# Measurements: PMC12880750, “Mechanistic insights and in vivo HIV suppression by the BRD4-targeting small molecule ZL0580” (PLOS Pathogens, 2026)
# What was measured:
# HIV-1 JR-CSF = test: HIV suppression in HIV-infected humanized mice (plasma viral load); type: in vivo, CD34+ Hu-NSG mice (Hu-mice)
# Experimental: Next, at week 0, all12 Hu-mice were intravenously inoculated with a single dose of HIV-1 JR-CSF (equivalent to 10 ng HIV p24 antigen per animal) (Fig 6A). Systemic HIV infection was confirmed in 11 out of the 12 mice at weeks 2 and 3 after HIV inoculation, based on the detection of plasma viral RNAs by a single-step RT-qPCR (Fig 6B-6C). Systemic HIV infection in the Hu-mice was also confirmed by ELISA quantification of plasma HIV p24 antigens at weeks 2 and 3 after HIV inoculation (Fig F in S1 Text). The 11 Hu-mice with successful HIV infection were then randomized into four treatment groups at week 3: empty vehicle control (EV) (n = 2), ART (n = 3), ZL0580 (n = 3), and ART + ZL0580 (n = 3). Drug formulations included: ART (Raltegravir 1.2 mg/mouse, Emtricitabine 3.2 mg/mouse, Tenofovir 3.2 mg/mouse), ZL0580 (3.8 mg/mouse), and a combination of both ART + ZL0580 (same concentration of individual compounds). All drugs were formulated in the buffer consisting of 10% DMSO, 10% Solutol HS 15, and 80% HP-β-CD (20%, w/v). The empty vehicle (EV) group received only the formulation buffer. Treatment regimens were initiated at week 3 and administered daily by intraperitoneal injection (Fig 6A). Plasma viral loads were closely monitored during the treatments.
# All humanized mice used in this study weighed approximately 20 grams, and drug dosages were calculated accordingly. The following compounds were administered to mice daily: Raltegravir (Ral) at 60mg/kg (1.2 mg/mouse), Emtricitabine (Emt) at 160mg/kg (3.2 mg/mouse), Tenofovir (Ten) at 160mg/kg (3.2 mg/mouse), and ZL0580 at […] (3.8 mg/mouse). ART drugs were purchased from MedChemExpress. ZL0580 was synthesized in-house as previously reported. All compounds were dissolved in a formulation vehicle composed of 10% DMSO, 10% Solutol HS 15, and 80% hydroxypropyl-β-cyclodextrin (HP-β-CD, 20% w/v). Compounds were administered via intraperitoneal injection daily.
# Mice were 16-week-old at the initiation of the experiments. All mice received human CD34 + stem cells of a single donor and human immune cell reconstitution was confirmed for all mice. A total of 12 Hu-mice were initially included in the study with each tagged and assigned with a unique ID. At week 0, all Hu-mice were intravenously (IV) infected with HIV-1 JR-CSF at a single dose of 10ng HIV p24 equivalent virus per animal. Blood/plasma viral loads were monitored and quantified weekly by a single-step RT-qPCR until systemic HIV infection was established. […] At week 3, the remaining 11 Hu-mice were randomized into four groups for subsequent treatments: Empty Vehicle (EV) (n = 2), ART (n = 3), ZL0580 (n = 3), and ART + ZL0580 (n = 3). The control mice received a mixture of DMSO, Solutol HS 15, and hydroxypropyl-β-cyclodextrin (HP-β-CD, 20% w/v), which was considered the empty vehicle control (EV). ART and ZL0580 compounds were administered to mice via intraperitoneal injection daily for four weeks (from week 3 to week 7). […] Plasma samples were collected from mice either weekly or biweekly for quantification of viral loads (RNA copies). Blood cells were also collected at weeks 7 and 13 for quantification of cell-associated HIV DNA in blood. Mouse weights were monitored after treatment.
# Viral RNA was isolated from plasma samples using the QIAamp Viral RNA Mini Kit (Qiagen) according to the manufacturer’s instructions. Quantification of viral RNA was performed using the PrimeTime One-Step RT-qPCR Master Mix (IDT) on a CFX Connect Real-Time PCR System (Bio-Rad). […]
# BRD4 BD2 WT = molecular target: T1, BRD4 BD2 WT (Homo sapiens, UniProt O60885); test: Thermal shift assay (TSA/DSF), BD2 WT; type: binding; details: eight increasing concentrations
# T1 construct: Constructs used for mutagenesis, including wild-type BD1 (BD1 WT), BD1 with an E151A mutation (BD1 E151A), and wild-type BD2 (BD2 WT); GST (cleaved yes); made in house
# Experimental: The melting temperatures shifts (ΔTm) were measured and the ΔTm curves as a function of compound-to-protein ratios were generated (Fig 2B–2C). […] As an additional control, the Tm of WT BD1 and E151A mutant in the absence of compound was also measured by TSA.
# Plasmid construction and subsequent protein expression and purification of BRD4 proteins were performed using OverExpress C43(DE3) bacterial competent cells (Lucigen) as described in our previous studies. In brief, 12 L of bacterial cultures grown to OD600 between 0.6-0.8 were induced at 37°C for 4 h by 1 mM isopropyl […] (IPTG). Bacterial sonication supernatant in the lysis buffer (500 mM NaCl, 20 mM Tris-HCl pH 7.9 at 4°C, 20% glycerol, 1 mM EDTA, 0.2 mM DTT, and protease inhibitors) was incubated with glutathione (GSH) agarose beads (GOLDBIO, G-250–100) overnight with rotation at 4°C. The protein-bound GSH beads were washed three times with the lysis buffer and digested with human rhinovirus 3C protease (HRV-P3C; Thermal Fisher 88946) at 4°C for 4 h, according to the manufacture’s procedure, to remove GST tag from BD1/2 proteins. Untagged BRD4-BD1 and -BD2 were separated from HRV-P3C via passing through a HiTrap Q HP anion exchange chromatography column (GE Healthcare, GE17-1154-01) and eluted by a salt gradient from 100 mM to 1 M NaCl. […]
# [1] = system: CDK9 binding to HIV 5′-LTR in J-Lat cells (10.6); test: ChIP-qPCR of CDK9 binding to HIV 5'-LTR; type: cell-based, human; details: PMA (50ng/ml) + compound 5 μM, 24 hours
# Experimental: Twenty-four hours later, cells were subjected to ChIP-qPCR using an anti-CDK9 antibody, with isotype IgG as the ChIP control.
# 24 hours after treatments, ChIP-qPCR was performed using a CDK9-specific antibody to examine the recruitment of CDK9 to HIV 5’-LTR in J-Lat cells. ChIP using an isotype IgG was included for normalization. Data were shown as fold change in the precipitated HIV 5′ LTR by the CDK9 antibody relative to the control isotype IgG for each treatment condition.
# ChIP was performed using a method reported previously [41]. About 15 × 10⁶ J-Lat cells were treated according to the conditions described in the Main Text. After treatment, cells were collected, washed once with PBS, and resuspended in 10 mL PBS. To cross-link protein–DNA complexes, cells were fixed with 37% formaldehyde, and the reaction was quenched by adding 10Xglycine and incubating for 5 min at room temperature. The cells were then pelleted by centrifugation, and the pellets were incubated in ice-cold lysis buffer for 30 min. […] After extensive washing with the appropriate ChIP buffers, immune complexes were eluted, reverse cross-linked, and treated with proteinase K. DNA was purified using phenol–chloroform extraction and subsequently analyzed by qPCR. […] ChIP-qPCR results were quantified using the fold-enrichment method as previously reported [41].
compound,measurement,setting,value
O=C(Nc1ccc(C(F)(F)F)cc1)Nc1ccc(S(=O)(=O)N2CCC[C@H]2C(=O)Nc2ccccc2)cc1 [ZL0580],Delay of viral rebound following TI compared to ART alone,HIV-1 JR-CSF; ZL0580 monotherapy,~ 2 weeks
same,Plasma viral loads at week 5,"HIV-1 JR-CSF; after two weeks of daily i.p. treatment, ZL0580 3.8 mg/mouse, ART Raltegravir 1.2, Emtricitabine 3.2, Tenofovir 3.2 mg/mouse",nearly undetectable levels
same,Plasma viral copies at week 7 (mean ± SEM),"HIV-1 JR-CSF; end of 4 weeks daily i.p. treatment, n = 3 per group",105 ± 28 HIV RNA copies/ml
same,"Area under the curve (AUC) of viral loads after TI, weeks 7 to 15, compared to EV control",HIV-1 JR-CSF; one-way ANOVA,significantly suppressed viral rebounds
same,Plasma mean viral copies at week 9,HIV-1 JR-CSF; two weeks post treatment interruption (TI),undetectable
same,Effect on stability of WT BD2 (TSA),BRD4 BD2 WT,sparing BD2
same,Reduction of CDK9 binding relative to PMA alone,[1],~ 3.8 fold
